Test results taken from patent US12077503B2, “Substituted cyclic amides and their use as herbicides” (FMC CORPORATION, priority 2015, dated 2024).

How the values were obtained:
Format in all cases: in vivo
corn (Zea mays) [1] = assay: Test G Post-Emergence Protocol; details: Zea mays, post-emergence, 312 h
Procedure, shortened: (§1)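 Sow in soil; grow 8 d (24/16 °C, 14 h light, 65% humidity); spray 15.625/62.5/250 g/ha in acetone:water 50:50 + 0.5% Tween 20; grow on, water twice daily; score damage 0–100 at 13 d.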

[2] = system: giant foxtail (Setaria faberi); assay: Test G Post-Emergence Protocol; details: Setaria faberi, post-emergence, 312 h
Procedure, shortened: as §1

[3] = system: velvetleaf (Abutilon theophrasti); assay: Test G Post-Emergence Protocol; details: Abutilon theophrasti, post-emergence, 312 h
Procedure, shortened: as §1

[4] = system: ivy-leaved morning glory (Ipomoea hederacea); assay: Test G Post-Emergence Protocol; details: Ipomoea, post-emergence, 312 h
Procedure, shortened: as §1

[5] = system: barnyardgrass (Echinochloa crus-galli); assay: Test G Post-Emergence Protocol; details: Echinochloa crus-galli, post-emergence, 312 h
Procedure, shortened: as §1

[6] = system: redroot pigweed (Amaranthus retroflexus); assay: Test G Post-Emergence Protocol; details: Amaranthus retroflexus, post-emergence, 312 h
Procedure, shortened: as §1

corn (Zea mays) [7] = assay: Test G Pre-Emergence Protocol; details: Zea mays, pre-emergence, 312 h, evaluated after 13 days
Procedure, shortened: (§2)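 Scores are visual damage ratings from 0 (no damage) to 100 (total plant kill), taken 13 days after treatment. Compound was sprayed one day post-sowing at 15.625, 62.5 or 250 g/ha in 50:50 acetone/water with 0.5% Tween 20.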

[8] = system: giant foxtail (Setaria faberi); assay: Test G Pre-Emergence Protocol; details: Setaria faberi, pre-emergence, 312 h, evaluated after 13 days
Procedure, shortened: as §2

[9] = system: velvetleaf (Abutilon theophrasti); assay: Test G Pre-Emergence Protocol; details: Abutilon theophrasti, pre-emergence, 312 h, evaluated after 13 days
Procedure, shortened: as §2

[10] = system: ivy-leaved morning glory (Ipomoea hederacea); assay: Test G Pre-Emergence Protocol; details: Ipomoea, pre-emergence, 312 h, evaluated after 13 days
Procedure, shortened: as §2

[11] = system: barnyardgrass (Echinochloa crus-galli); assay: Test G Pre-Emergence Protocol; details: Echinochloa crus-galli, pre-emergence, 312 h, evaluated after 13 days
Procedure, shortened: as §2

[12] = system: redroot pigweed (Amaranthus retroflexus); assay: Test G Pre-Emergence Protocol; details: Amaranthus retroflexus, pre-emergence, 312 h, evaluated after 13 days
Procedure, shortened: as §2

## Cc1cncc(NC(=O)[C@@H]2C(=O)N(C)C[C@H]2c2ccc(C(F)(F)F)cc2)n1 (racemic) [Compound 1647]
Corn (Zea mays) [1]; 15.625 g ai/ha, evaluated after 13 days (100=total damage to plant; 0=no damage to plant), read-out: Corn damage rating
  plant injury at 15.625 g/ha: 0%
Corn (Zea mays) [1]; 62.5 g ai/ha, evaluated after 13 days, read-out: Corn damage rating (100=total damage to plant; 0=no damage to plant)
  plant injury at 62.5 g/ha: 0%
Corn (Zea mays) [1]; 250 g ai/ha, evaluated after 13 days, read-out: damage to plant, Corn (100=total damage to plant; 0=no damage to plant)
  plant injury at 250 g/ha: 10%
[2]; 15.625 g ai/ha, evaluated after 13 days (100=total damage to plant; 0=no damage to plant), read-out: Foxtail, Giant damage rating
  pest or weed control at 15.625 g/ha: 0%
[2]; 62.5 g ai/ha, evaluated after 13 days, read-out: Foxtail, Giant damage rating (100=total damage to plant; 0=no damage to plant)
  pest or weed control at 62.5 g/ha: 30%
[2]; 250 g ai/ha, evaluated after 13 days, read-out: damage to plant, Foxtail, Giant (100=total damage to plant; 0=no damage to plant)
  pest or weed control at 250 g/ha: 70%
[3]; 15.625 g ai/ha, evaluated after 13 days (100=total damage to plant; 0=no damage to plant), read-out: Velvetleaf damage rating
  pest or weed control at 15.625 g/ha: 0%
[3]; 62.5 g ai/ha, evaluated after 13 days, read-out: Velvetleaf damage rating (100=total damage to plant; 0=no damage to plant)
  pest or weed control at 62.5 g/ha: 0%
[3]; 250 g ai/ha, evaluated after 13 days, read-out: damage to plant, Velvetleaf (100=total damage to plant; 0=no damage to plant)
  pest or weed control at 250 g/ha: 40%
[4]; 15.625 g ai/ha, evaluated after 13 days (100=total damage to plant; 0=no damage to plant), read-out: Morningglory, Ivy-leaved damage rating
  pest or weed control at 15.625 g/ha: 0%
[4]; 62.5 g ai/ha, evaluated after 13 days, read-out: Morningglory, Ivy-leaved damage rating (100=total damage to plant; 0=no damage to plant)
  pest or weed control at 62.5 g/ha: 0%
[4]; 250 g ai/ha, evaluated after 13 days, read-out: damage to plant, Morningglory, Ivy-leaved (100=total damage to plant; 0=no damage to plant)
  pest or weed control at 250 g/ha: 20%
[5]; 15.625 g ai/ha, evaluated after 13 days (100=total damage to plant; 0=no damage to plant), read-out: Barnyardgrass damage rating
  pest or weed control at 15.625 g/ha: 0%
[5]; 62.5 g ai/ha, evaluated after 13 days, read-out: Barnyardgrass damage rating (100=total damage to plant; 0=no damage to plant)
  pest or weed control at 62.5 g/ha: 0%
[5]; 250 g ai/ha, evaluated after 13 days, read-out: damage to plant, Barnyardgrass (100=total damage to plant; 0=no damage to plant)
  pest or weed control at 250 g/ha: 50%
[6]; 15.625 g ai/ha, evaluated after 13 days (100=total damage to plant; 0=no damage to plant), read-out: Pigweed, Redroot damage rating
  pest or weed control at 15.625 g/ha: 0%
[6]; 62.5 g ai/ha, evaluated after 13 days, read-out: Pigweed, Redroot damage rating (100=total damage to plant; 0=no damage to plant)
  pest or weed control at 62.5 g/ha: 0%
[6]; 250 g ai/ha, evaluated after 13 days, read-out: damage to plant, Pigweed, Redroot (100=total damage to plant; 0=no damage to plant)
  pest or weed control at 250 g/ha: 30%
Corn (Zea mays) [7]; 15.625 g ai/ha, read-out: Corn damage rating (100=total damage to plant; 0=no damage to plant)
  plant injury at 15.625 g/ha: 0%
Corn (Zea mays) [7]; 62.5 g ai/ha, 100=total damage to plant, 0=no damage to plant, read-out: plant damage rating, Corn
  plant injury at 62.5 g/ha: 0%
Corn (Zea mays) [7]; 250 g ai/ha, read-out: Corn damage rating (100=total damage to plant; 0=no damage to plant)
  plant injury at 250 g/ha: 0%
[8]; 15.625 g ai/ha, read-out: Foxtail, Giant damage rating (100=total damage to plant; 0=no damage to plant)
  pest or weed control at 15.625 g/ha: 0%
[8]; 62.5 g ai/ha, 100=total damage to plant, 0=no damage to plant, read-out: plant damage rating, Foxtail, Giant
  pest or weed control at 62.5 g/ha: 0%
[8]; 250 g ai/ha, read-out: Foxtail, Giant damage rating (100=total damage to plant; 0=no damage to plant)
  pest or weed control at 250 g/ha: 70%
[9]; 15.625 g ai/ha, read-out: Velvetleaf damage rating (100=total damage to plant; 0=no damage to plant)
  pest or weed control at 15.625 g/ha: 0%
[9]; 62.5 g ai/ha, 100=total damage to plant, 0=no damage to plant, read-out: plant damage rating, Velvetleaf
  pest or weed control at 62.5 g/ha: 0%
[9]; 250 g ai/ha, read-out: Velvetleaf damage rating (100=total damage to plant; 0=no damage to plant)
  pest or weed control at 250 g/ha: 10%
[10]; 15.625 g ai/ha, read-out: Morning-glory, Ivy-leaved damage rating (100=total damage to plant; 0=no damage to plant)
  pest or weed control at 15.625 g/ha: 0%
[10]; 62.5 g ai/ha, 100=total damage to plant, 0=no damage to plant, read-out: plant damage rating, Morningglory, Ivy-leaved
  pest or weed control at 62.5 g/ha: 0%
[10]; 250 g ai/ha, read-out: Morningglory, Ivy-leaved damage rating (100=total damage to plant; 0=no damage to plant)
  pest or weed control at 250 g/ha: 0%
[11]; 15.625 g ai/ha, read-out: Barnyard grass damage rating (100=total damage to plant; 0=no damage to plant)
  pest or weed control at 15.625 g/ha: 0%
[11]; 62.5 g ai/ha, 100=total damage to plant, 0=no damage to plant, read-out: plant damage rating, Barnyardgrass
  pest or weed control at 62.5 g/ha: 0%
[11]; 250 g ai/ha, read-out: Barnyardgrass damage rating (100=total damage to plant; 0=no damage to plant)
  pest or weed control at 250 g/ha: 0%
[12]; 15.625 g ai/ha, read-out: Pigweed, Redroot damage rating (100=total damage to plant; 0=no damage to plant)
  pest or weed control at 15.625 g/ha: 0%
[12]; 62.5 g ai/ha, 100=total damage to plant, 0=no damage to plant, read-out: plant damage rating, Pigweed, Redroot
  pest or weed control at 62.5 g/ha: 0%
[12]; 250 g ai/ha, read-out: Pigweed, Redroot damage rating (100=total damage to plant; 0=no damage to plant)
  pest or weed control at 250 g/ha: 20%
